# Results as given in article PMC4774911, “Biochemical Screening of Five Protein Kinases from Plasmodium falciparum against 14,000 Cell-Active Compounds” (PLoS ONE, 2016).
# Where “and” joins values, the source holds several entries; their conditions need not be identical. Equal entries are not always repeated.
# Experiments:
# MAP3K11 = MAP3K11 (Homo sapiens, UniProt Q16584); experiment: biochemical
# CDK10 = CDK10 (Homo sapiens, UniProt Q15131); experiment: biochemical
# TAOK2 = molecular target: T1, TAOK2 (Homo sapiens, UniProt Q9UL54); experiment: biochemical
# T1 sequence (Q9UL54 1-1235): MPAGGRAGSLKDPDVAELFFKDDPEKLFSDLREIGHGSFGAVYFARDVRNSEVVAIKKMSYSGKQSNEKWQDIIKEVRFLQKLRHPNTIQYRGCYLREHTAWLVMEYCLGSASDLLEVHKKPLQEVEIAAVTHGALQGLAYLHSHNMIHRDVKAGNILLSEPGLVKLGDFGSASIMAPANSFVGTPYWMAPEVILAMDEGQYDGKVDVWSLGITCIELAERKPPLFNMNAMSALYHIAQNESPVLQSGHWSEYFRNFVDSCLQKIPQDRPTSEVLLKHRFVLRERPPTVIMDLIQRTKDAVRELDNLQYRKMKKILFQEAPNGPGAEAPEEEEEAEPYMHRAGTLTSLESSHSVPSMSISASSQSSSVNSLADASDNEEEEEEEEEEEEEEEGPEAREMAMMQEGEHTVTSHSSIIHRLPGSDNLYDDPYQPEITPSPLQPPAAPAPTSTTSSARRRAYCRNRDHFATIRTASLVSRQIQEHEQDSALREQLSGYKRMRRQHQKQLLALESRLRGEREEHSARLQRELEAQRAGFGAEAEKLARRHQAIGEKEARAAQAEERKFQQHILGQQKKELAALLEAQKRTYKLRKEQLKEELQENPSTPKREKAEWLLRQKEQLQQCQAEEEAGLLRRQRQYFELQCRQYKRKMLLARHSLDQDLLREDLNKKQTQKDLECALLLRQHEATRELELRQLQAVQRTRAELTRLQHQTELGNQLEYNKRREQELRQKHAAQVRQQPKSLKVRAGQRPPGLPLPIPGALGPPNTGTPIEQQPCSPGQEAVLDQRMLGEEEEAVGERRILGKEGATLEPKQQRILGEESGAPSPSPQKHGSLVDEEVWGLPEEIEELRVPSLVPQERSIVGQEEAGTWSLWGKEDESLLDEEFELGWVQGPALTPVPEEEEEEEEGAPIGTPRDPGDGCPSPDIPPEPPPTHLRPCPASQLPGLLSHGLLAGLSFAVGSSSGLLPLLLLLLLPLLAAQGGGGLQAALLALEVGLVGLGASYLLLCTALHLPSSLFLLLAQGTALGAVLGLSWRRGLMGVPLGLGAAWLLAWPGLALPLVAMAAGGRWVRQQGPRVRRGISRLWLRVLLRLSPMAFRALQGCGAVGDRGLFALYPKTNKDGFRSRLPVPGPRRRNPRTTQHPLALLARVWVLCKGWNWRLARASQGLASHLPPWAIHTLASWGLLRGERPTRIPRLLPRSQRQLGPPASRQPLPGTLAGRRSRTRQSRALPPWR
# RPS6KA3 = RPS6KA3 (Homo sapiens, UniProt P51812); experiment: biochemical
# RPS6KA3, sequence (P51812 whole entry): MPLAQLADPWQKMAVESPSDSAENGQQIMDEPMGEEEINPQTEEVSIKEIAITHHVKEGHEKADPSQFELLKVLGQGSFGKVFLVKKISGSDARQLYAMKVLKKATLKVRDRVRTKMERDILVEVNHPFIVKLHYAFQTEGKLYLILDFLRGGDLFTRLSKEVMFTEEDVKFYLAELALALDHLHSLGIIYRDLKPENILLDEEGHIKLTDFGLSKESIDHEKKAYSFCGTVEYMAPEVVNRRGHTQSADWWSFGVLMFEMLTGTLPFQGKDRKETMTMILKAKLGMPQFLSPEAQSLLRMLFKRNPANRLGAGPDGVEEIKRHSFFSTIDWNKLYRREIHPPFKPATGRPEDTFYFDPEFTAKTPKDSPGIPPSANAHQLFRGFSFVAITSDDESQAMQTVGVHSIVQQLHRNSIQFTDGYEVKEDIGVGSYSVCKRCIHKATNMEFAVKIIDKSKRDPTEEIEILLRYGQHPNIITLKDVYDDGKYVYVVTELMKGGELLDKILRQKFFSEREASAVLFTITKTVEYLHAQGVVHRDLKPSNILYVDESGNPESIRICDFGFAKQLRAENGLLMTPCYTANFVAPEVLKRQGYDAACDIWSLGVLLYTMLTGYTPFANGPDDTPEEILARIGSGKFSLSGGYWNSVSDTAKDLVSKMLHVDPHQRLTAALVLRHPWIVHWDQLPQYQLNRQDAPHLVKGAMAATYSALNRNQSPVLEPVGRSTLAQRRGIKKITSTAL
# [1] = molecular target: T2, Plasmodium falciparum calcium-dependent protein kinase 1 (CDPK1) (Plasmodium falciparum, UniProt P62344); experiment: CDPK1 Kinase-Glo ATP-consumption screen and dose-response; type: biochemical; conditions: hits below 1 uM; read-out: CDPK1 IC50
# T2 construct: 6-Histidine (N); made in house
# T2 sequence (P62344 whole entry): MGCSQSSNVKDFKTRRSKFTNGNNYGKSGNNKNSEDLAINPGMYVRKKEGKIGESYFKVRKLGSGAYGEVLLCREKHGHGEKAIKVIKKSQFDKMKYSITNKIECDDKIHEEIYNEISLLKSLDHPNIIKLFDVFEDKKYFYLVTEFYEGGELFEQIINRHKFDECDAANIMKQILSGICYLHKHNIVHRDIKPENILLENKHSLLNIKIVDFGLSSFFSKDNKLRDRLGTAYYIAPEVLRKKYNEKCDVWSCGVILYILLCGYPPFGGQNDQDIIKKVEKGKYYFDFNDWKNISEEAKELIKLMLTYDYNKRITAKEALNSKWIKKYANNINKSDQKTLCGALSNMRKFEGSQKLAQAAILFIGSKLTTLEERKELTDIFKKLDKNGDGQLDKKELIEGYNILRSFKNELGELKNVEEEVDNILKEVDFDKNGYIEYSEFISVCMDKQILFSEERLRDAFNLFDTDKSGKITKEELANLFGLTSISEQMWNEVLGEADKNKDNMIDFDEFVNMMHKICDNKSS
# Method in brief: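 Single-point testing used 1 μM final compound, then dose-response, against CDPK4 and CDPK1 with Syntide-2 (40 μM) as substrate. After 90 min, reactions were halted by 5 mM EGTA, and kinase activity was inferred from depleted ATP via Kinase-Glo luminescence.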
# MINK1 = MINK1 (Homo sapiens, UniProt Q8N4C8); experiment: biochemical; set-up: endogenous in cells; host or cells: K562 cell extract; species or system K562 (extract); replicate k of n = 2 (each experiment ID is one independent experiment; two experiment IDs per compound); conditions: read-out: KDapp
# MINK1, sequence (Q8N4C8 whole entry): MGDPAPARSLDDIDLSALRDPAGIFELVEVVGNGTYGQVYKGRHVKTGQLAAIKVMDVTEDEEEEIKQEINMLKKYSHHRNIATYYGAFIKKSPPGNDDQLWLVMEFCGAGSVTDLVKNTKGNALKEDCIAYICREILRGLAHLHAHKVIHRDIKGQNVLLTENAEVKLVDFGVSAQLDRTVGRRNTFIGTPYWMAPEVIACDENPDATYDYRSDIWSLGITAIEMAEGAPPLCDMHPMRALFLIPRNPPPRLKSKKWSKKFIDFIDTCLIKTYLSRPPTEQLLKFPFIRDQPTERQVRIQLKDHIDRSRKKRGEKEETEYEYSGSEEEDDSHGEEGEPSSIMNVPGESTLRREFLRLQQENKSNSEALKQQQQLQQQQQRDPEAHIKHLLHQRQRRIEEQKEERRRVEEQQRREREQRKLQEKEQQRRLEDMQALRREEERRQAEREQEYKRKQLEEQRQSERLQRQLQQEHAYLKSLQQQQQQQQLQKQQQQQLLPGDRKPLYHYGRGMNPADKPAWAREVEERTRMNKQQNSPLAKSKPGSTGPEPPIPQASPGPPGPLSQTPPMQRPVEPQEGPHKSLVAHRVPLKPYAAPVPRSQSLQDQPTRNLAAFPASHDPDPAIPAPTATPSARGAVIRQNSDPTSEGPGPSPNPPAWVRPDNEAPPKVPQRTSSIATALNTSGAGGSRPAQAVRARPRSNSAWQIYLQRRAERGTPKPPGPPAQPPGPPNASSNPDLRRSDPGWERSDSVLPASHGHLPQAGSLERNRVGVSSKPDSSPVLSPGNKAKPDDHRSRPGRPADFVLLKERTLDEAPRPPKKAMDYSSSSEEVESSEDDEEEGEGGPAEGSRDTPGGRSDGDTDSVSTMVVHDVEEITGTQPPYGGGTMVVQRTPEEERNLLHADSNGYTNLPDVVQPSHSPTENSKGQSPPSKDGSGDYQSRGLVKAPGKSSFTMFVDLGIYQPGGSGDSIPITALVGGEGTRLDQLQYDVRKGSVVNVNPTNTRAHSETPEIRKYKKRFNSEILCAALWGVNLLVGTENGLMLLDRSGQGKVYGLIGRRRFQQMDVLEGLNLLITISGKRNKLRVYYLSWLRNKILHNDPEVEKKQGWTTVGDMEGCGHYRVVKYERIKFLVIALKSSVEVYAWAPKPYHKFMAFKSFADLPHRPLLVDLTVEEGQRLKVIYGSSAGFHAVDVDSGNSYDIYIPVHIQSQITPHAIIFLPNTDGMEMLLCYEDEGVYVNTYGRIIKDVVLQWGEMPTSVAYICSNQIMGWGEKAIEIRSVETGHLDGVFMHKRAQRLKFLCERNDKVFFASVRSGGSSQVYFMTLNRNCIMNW
# CSNK1E = CSNK1E (Homo sapiens, UniProt P49674); experiment: biochemical; set-up: endogenous in cells; host or cells: K562 cell extract; species or system K562 (extract); replicate k of n = 2 (each experiment ID is one independent experiment; two experiment IDs per compound); conditions: read-out: KDapp
# CSNK1E, sequence (P49674 whole entry): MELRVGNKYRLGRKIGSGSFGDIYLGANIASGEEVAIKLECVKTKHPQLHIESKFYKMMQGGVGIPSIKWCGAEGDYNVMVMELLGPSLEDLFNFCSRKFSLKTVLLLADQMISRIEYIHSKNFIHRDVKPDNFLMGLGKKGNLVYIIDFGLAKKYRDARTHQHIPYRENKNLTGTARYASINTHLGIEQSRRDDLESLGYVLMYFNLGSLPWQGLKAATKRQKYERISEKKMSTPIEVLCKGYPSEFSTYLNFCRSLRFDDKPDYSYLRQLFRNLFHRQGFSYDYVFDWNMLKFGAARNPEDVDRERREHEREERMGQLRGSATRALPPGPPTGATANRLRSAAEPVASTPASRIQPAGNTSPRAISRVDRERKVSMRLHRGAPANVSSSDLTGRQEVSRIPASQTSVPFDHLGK
# MAP3K2 = molecular target: T3, MAP3K2 (Homo sapiens, UniProt Q9Y2U5); experiment: biochemical; set-up: endogenous in cells; host or cells: K562 cell extract; species or system K562 (extract); replicate k of n = 2 (each experiment ID is one independent experiment; two experiment IDs per compound); conditions: read-out: KDapp
# T3 sequence (Q9Y2U5 1-619): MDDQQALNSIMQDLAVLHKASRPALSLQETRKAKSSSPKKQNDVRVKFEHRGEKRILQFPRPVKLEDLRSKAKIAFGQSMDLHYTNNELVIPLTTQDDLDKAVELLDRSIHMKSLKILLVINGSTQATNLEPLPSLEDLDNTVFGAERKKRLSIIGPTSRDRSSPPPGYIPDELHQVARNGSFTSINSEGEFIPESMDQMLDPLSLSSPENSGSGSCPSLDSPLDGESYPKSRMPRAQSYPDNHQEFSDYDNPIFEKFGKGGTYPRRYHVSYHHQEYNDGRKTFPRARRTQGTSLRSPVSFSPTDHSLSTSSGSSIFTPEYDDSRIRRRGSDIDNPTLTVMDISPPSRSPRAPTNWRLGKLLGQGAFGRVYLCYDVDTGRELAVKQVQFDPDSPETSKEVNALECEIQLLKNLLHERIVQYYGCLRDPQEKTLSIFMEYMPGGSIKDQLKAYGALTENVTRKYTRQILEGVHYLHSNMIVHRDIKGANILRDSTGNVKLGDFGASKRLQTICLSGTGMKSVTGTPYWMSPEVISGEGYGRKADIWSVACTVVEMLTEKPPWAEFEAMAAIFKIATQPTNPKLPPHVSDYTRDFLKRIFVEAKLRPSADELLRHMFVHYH
# MAP3K11, sequence (Q16584 whole entry): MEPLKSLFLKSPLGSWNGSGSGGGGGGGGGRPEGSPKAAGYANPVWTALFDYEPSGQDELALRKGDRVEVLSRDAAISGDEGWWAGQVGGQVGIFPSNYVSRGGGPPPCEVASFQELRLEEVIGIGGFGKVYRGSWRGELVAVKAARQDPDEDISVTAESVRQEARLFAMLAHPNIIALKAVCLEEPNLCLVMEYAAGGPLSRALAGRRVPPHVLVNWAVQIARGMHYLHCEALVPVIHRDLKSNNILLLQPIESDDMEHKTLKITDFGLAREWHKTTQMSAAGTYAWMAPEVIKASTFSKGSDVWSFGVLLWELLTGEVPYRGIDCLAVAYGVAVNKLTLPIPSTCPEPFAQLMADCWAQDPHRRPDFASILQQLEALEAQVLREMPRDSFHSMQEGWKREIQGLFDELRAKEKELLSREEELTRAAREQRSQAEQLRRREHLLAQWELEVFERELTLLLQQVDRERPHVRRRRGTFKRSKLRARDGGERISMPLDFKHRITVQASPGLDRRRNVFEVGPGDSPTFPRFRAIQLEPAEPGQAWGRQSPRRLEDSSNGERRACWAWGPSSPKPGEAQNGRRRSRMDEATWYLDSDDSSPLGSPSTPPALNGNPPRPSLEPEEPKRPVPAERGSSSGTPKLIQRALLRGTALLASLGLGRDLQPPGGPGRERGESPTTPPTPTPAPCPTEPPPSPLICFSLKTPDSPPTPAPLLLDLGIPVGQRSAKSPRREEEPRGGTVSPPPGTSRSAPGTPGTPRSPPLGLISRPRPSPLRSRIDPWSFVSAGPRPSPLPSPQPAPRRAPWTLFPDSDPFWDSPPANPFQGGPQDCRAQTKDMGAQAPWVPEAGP
# CDK10, sequence (Q15131 whole entry): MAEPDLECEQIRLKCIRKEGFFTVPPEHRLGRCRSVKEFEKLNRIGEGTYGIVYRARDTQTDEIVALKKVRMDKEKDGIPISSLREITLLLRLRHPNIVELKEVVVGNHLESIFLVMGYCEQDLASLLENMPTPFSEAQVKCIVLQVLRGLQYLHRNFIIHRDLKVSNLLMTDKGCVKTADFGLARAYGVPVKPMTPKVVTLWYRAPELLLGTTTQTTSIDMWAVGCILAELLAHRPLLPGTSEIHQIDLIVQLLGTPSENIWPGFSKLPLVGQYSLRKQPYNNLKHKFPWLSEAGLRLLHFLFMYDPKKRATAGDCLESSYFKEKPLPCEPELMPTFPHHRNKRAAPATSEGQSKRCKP
Compound,IC50 (MAP3K11),IC50 (CDK10) [nM],IC50 (TAOK2) [nM],IC50 (RPS6KA3),IC50 [1] [nM],Kd (MINK1) [nM],Kd (CSNK1E),Kd (MAP3K2) [nM]
CN(C)CC(O)COc1ccc(Nc2ncc([N+](=O)[O-])c(Nc3ccccc3O)n2)cc1.O=C(O)C(F)(F)F (stereo not shown) [TCMDC-141399],1400 nM and 630 nM,1600,> 20000,–,–,–,–,–
Cl.NCC1(c2nc(-c3ccc(Cl)c(O)c3)c(-c3ccncc3)[nH]2)CCCCC1 [TCMDC-141154],–,> 20000,–,> 20000 nM,14,837,226 nM,779
CN1CCN(c2ccc(Nc3ncc(C#N)c(Nc4ccccc4C(N)=O)n3)cc2)CC1.Cl [TCMDC-134116],89 nM,–,400,89 nM and 120 nM,12,173,1100 nM and 2810 nM,318
